Results: patent US20240327414A1, “CYCLOPROPYL-(HETERO)ARYL-SUBSTITUTED ETHYL- SULFONE / SULFOXIMINE-PYRIDINE N-OXIDE DERIVATIVES” (Boehringer Ingelheim Vetmedica GmbH, priority 2023, published 2024)

Columns and labels:
adult C. felis fleas [1] = test: Ingestion activity against adult Ctenocephalides felis (membrane feeding, motility); conditions: 48 h, ingestion in bovine blood, % motility reduction 48h post treatment
Method: Example 6: Screening Method to Test Ingestion Activity of N-Oxide Compounds of Formula (I), (Ia) or (Ib) Against Adult Ctenocephalides felis
N-oxide compounds of formula (I), (Ia) and (Ib) dissolved in 100% DMSO are added to bovine blood and offered via an artificial membrane feeding system to adult C. felis fleas. The motility of fleas is then visually inspected 48h post treatment. Efficacy is expressed in % motility reduction compared to controls containing blood treated with DMSO only. A dose response series is implemented to determine EC50 values.

A. aegypti L1 larvae = test: Screening against larvae of Aedes aegypti; conditions: 48 h at 27° C., percentage of mortality
Method: Example 3: Screening Method to Test Activity of N-Oxide Compounds of Formula (I), (Ia) or (Ib) Against Larvae of Aedes aegypti
Eight A. aegypti L1 larvae in a total volume of 64 μL water are added to 384-well microplates containing N-oxide compounds of formula (I), (Ia) and (Ib) formulated in 100% DMSO. The plates are incubated for 48 h at 27° C. Individual well images are acquired and analyzed using a pipeline to quantitatively assess the amount of larvae biomass accumulating at the bottom of the well. The efficacy of a compound at a given dose is expressed as “percentage of mortality” and determined by comparison to average biomass descriptors of positive and negative control wells containing 1.0 μM Fipronil or DMSO only, respectively. Dose response assay are conducted to determine an EC50 value.

adult C. felis fleas [2] = test: Ingestion activity against adult Ctenocephalides felis (alternative method, membrane feeding, mortality); conditions: bovine blood, mortality at 48 hours post-treatment
Method: Selected N-oxide compounds of formula (I), (Ia) and (Ib) and compound “P23” of WO 2016/030229 dissolved in 100% DMSO are diluted in bovine blood with sodium heparin anti-coagulant. The resulting formulation is offered via an artificial membrane feeding system to approximately 15 adult C. felis fleas previously dispensed into 24-well plates. The plates are then incubated in a double-chambered device. Visual evaluation for mortality is performed at 48 hours post-treatment. Compound efficacy at a given dose is expressed as percentage mortality and determined by normalization to positive and negative controls. A dose response series is implemented to determine EC50 values.
Example 7: Screening Method to Test Ingestion Activity of N-Oxide Compounds of Formula (I), (Ia) or (Ib) Against Adult Ctenocephalides felis (Alternative Method)
N-oxide compounds of formula (I), (Ia) and (Ib) dissolved in 100% DMSO are diluted in bovine blood with sodium heparin anti-coagulant. The resulting formulation is offered via an artificial membrane feeding system to approximately 15 adult C. felis fleas previously dispensed into 24-well plates. The plates are then incubated in a double-chambered device. Visual evaluation for mortality is performed at 48 hours post-treatment. Compound efficacy at a given dose is expressed as percentage mortality and determined by normalization to positive and negative controls. A dose response series is implemented to determine EC50 values.
The structurally closest prior art compound “P23” of WO 2016/030229 is characterized vis-à-vis selected N-oxide compounds of formula (I), (Ia) and (Ib) with regard to their potency in in vitro screening assay to test ingestion activity against adult fleas (Ctenocephalides felis) (alternative method according to Example 7).

Plutella xylostella = test: Insecticidal test on Plutella xylostella; type: in vivo; conditions: 144 h, Chinese cabbage seedling dip, 6 days after the dip treatment, read-out: activity level (corrected mortality rate)
Method: Example 15: Insecticidal Test on Plutella xylostella
The N-oxide compounds of formula (I), (Ia) and (Ib) of the present invention or salts thereof are separately dispersed in water and diluted to 500 ppm. Ten adults of Plutella xylostella are released onto Chinese cabbage seedlings and allowed to lay eggs thereon. 2 days after the release of the adults, the seedling is dipped in the dispersion for about 30 seconds. After air dried, the seedling is kept in a room at 25° C. 6 days after the dip treatment, the numbers of the dead and alive insects are counted. The corrected mortality rate is calculated according to the following formula and the insecticidal activity is evaluated according to the following criteria.
(§1) [formula] [formula] • A: the corrected mortality rate is 100% • B: the corrected mortality rate is 90 to 99% • C: the corrected mortality rate is 80 to 89% • D: the corrected mortality rate is 50 to 79%

Laodelphax striatellus = test: Insecticidal test on Laodelphax striatellus; type: in vivo; conditions: 192 h, rice seedling dip, 3rd-instar nymphs, 8 days after inoculation, read-out: activity level (corrected mortality rate)
Method: Example 16: Insecticidal Test on Laodelphax striatellus
The N-oxide compounds of formula (I), (Ia) and (Ib) of the present invention or salts thereof are separately dispersed in water and diluted to 500 ppm. Rice plant seedlings are dipped in the dispersion for about 30 seconds. After air dried, the seedlings are put into a separate glass test tube and inoculated with ten 3rd-instar nymphs of Laodelphax striatellus and then the glass test tube is kept in a room at 25° C. 8 days after the inoculation, the numbers of the dead and alive insects are counted. The corrected mortality rate is calculated according to the following formula and the insecticidal activity is evaluated according to the following criteria.
as §1

[3] = tested on: adult Ctenocephalides felis fleas; test: Contact activity against adult Ctenocephalides felis; conditions: adult C. felis, mortality at 72 hours post-treatment
Method: Example 4: Screening Method to Test Contact Activity of N-Oxide Compounds of Formula (I), (Ia) or (Ib) Against Adult Ctenocephalides felis
N-oxide compounds of formula (I), (Ia) and (Ib) dissolved in 100% DMSO are diluted in acetone to a desired concentration. The resulting formulation is used to coat the fibers of a 0.5-inch-long piece of pipe cleaner placed in a glass scintillation vial. The vial is capped with a rubber gasket and filter paper insert. After the acetone has evaporated, ten adult Ctenocephalides felis fleas are added to each vial. The vials are then incubated at 22° C., 80% relative humidity, and 12 hours of light/12 hours of dark until a visual evaluation for mortality is performed at 72 hours post-treatment. Compound efficacy at a given dose is expressed as percentage mortality and adjusted to remove background mortality observed in control vials containing DMSO only. A dose response series of treated vials is implemented to determine EC50 values.

[4] = tested on: adult R. sanguineus ticks; test: Contact activity against adult Rhipicephalus sanguineus; conditions: mortality at 48 hours post-treatment
Method: Example 5: Screening Method to Test Contact Activity of N-Oxide Compounds of Formula (I), (Ia) or (Ib) Against Adult Rhipicephalus sanguineus
N-oxide compounds of formula (I), (Ia) and (Ib) formulated in 100% DMSO are diluted in a solution containing acetone and Triton X-100 (0.02%). The resulting formulation is used to coat the inner walls of glass scintillation vials and the filter paper covering the cap of the vial. Once dried, ten adult R. sanguineus ticks are added to the vials. The vials are incubated at 24° C., 95% relative humidity, and 12 hours of light/12 hours of dark until evaluation. Ticks are visually evaluated for mortality at 48 hours post-treatment. Compound efficacy at a given dose is expressed as percentage mortality. A dose response series was implemented to determine EC50 values.

Spodoptera litura = test: Insecticidal test on Spodoptera litura; type: in vivo; conditions: foliar, 192 h, cabbage leaf dip, 2nd-instar larvae, 8 days after inoculation, read-out: activity level (corrected mortality rate)
Method: Example 14: Insecticidal Test on Spodoptera litura
The N-oxide compounds of formula (I), (Ia) and (Ib) of the present invention or salts thereof are separately dispersed in water and diluted to 500 ppm. Cabbage leaves are dipped in the dispersion for about 30 seconds. After air dried, the leaves are placed in a plastic Petri dish with a diameter of 9 cm and inoculated with ten 2nd-instar larvae of Spodoptera litura, after which the dish is closed and then allowed to stand in a room at 25° C. 8 days after the inoculation, the numbers of the dead and alive insects are counted. The corrected mortality rate is calculated according to the following formula and the insecticidal activity is evaluated according to the following criteria.
as §1

EC50 (adult C. felis fleas [1]) [µM]	Compound	EC50 (A. aegypti L1 larvae) [µM]	EC50 (adult C. felis fleas [2]) [µM]	mortality at 500 ppm (Plutella xylostella) [%]	mortality at 500 ppm (Laodelphax striatellus) [%]	EC50 [3] [µM]	EC50 [4] [µM]	mortality at 500 ppm (Spodoptera litura) [%]
< 10	CCS(=O)(=O)c1cc(-c2noc(C3CC3)n2)c[n+]([O-])c1-c1nc2cc(C(F)(F)C(F)(F)F)nnc2n1C [Compound 3, 5-(5-cyclopropyl-1,2,4-oxadiazol-3-yl)-3-(ethanesulfonyl)-2-[7-methyl-3-(1,1,2,2,2-pentafluoroethyl)-7H-imidazo[4,5-c]pyridazin-6-yl]pyridin-1-ium-1-olate]	–	–	–	–	–	–	–
< 10	CCS(=O)(=O)c1cc(-c2ccc(C3(F)CC3)cc2)c[n+]([O-])c1-c1nc2cc(C(F)(F)C(F)(F)F)nnc2n1C [Compound 27]	< 0.04	0.46	100	100	–	–	–
< 10	CCS(=O)(=O)c1cc(-c2ccc(C3(F)CC3)cc2)c[n+]([O-])c1-c1nc2cc(C(F)(F)C(F)(F)F)n[n+]([O-])c2n1C [Compound 45]	< 0.04	–	–	–	–	–	–
10 to 100	CCS(=O)(=O)c1cc(-c2ccc(C3CC3)cc2)c[n+]([O-])c1-c1nc2cc(C(F)(F)C(F)(F)F)cnc2n1C [Compound 23]	–	–	–	–	–	–	–
10 to 100	CCS(=O)(=O)c1cc(-c2ccc(C3(F)CC3)cc2)cnc1-c1nc2cc(C(F)(F)C(F)(F)F)n[n+]([O-])c2n1C [Compound 36]	< 0.04	1.06	100	100	–	10 to 100	–
10 to 100	CCS(=O)(=O)c1cc(-c2noc(C3CC3)n2)c[n+]([O-])c1-c1nc2cc(C(F)(F)C(F)(F)F)n[n+]([O-])c2n1C [Compound 4, 5-(5-cyclopropyl-1,2,4-oxadiazol-3-yl)-3-(ethanesulfonyl)-2-[7-methyl-1-oxido-3-(1,1,2,2,2-pentafluoroethyl)-7H-imidazo[4,5-c]pyridazin-1-ium-6-yl]pyridin-1-ium-1-olate]	–	–	–	–	–	–	–

Further lines, the compound ahead of its results:

Compound	EC50 (adult C. felis fleas [1]) [µM]	EC50 (A. aegypti L1 larvae) [µM]	EC50 (adult C. felis fleas [2]) [µM]	mortality at 500 ppm (Plutella xylostella) [%]	mortality at 500 ppm (Laodelphax striatellus) [%]	EC50 [3] [µM]	EC50 [4] [µM]	mortality at 500 ppm (Spodoptera litura) [%]
CCS(=O)(=O)c1cc(-c2noc(C3CC3)n2)cnc1-c1nc2cc(C(F)(F)C(F)(F)F)n[n+]([O-])c2n1C [Compound 1, 6-[5-(5-cyclopropyl-1,2,4-oxadiazol-3-yl)-3-(ethanesulfonyl)pyridin-2-yl]-7-methyl-3-(1,1,2,2,2-pentafluoroethyl)-7H-imidazo[4,5-c]pyridazin-1-ium-1-olate]	< 10	–	0.783	100	100	10 to 100	–	–
CCS(=O)(=O)c1cc(-c2noc(C3CC3)n2)cnc1-c1nc2cc(C(C)(F)F)n[n+]([O-])c2n1C [Compound 39]	–	–	0.454	100	100	–	–	–
CCS(=O)(=O)c1cc(-c2noc(C3CC3)n2)cnc1-c1nc2cc(C(C)(F)F)[n+]([O-])nc2n1C [Compound 40]	–	–	0.807	–	–	–	–	–
CCS(=O)(=O)c1cc(-c2cc(C3CC3)ccn2)cnc1-c1nc2cc(C(F)(F)C(F)(F)F)c[n+]([O-])c2n1C [Compound 29]	10 to 100	0.04 to 0.05	–	–	–	–	–	–
CCS(=O)(=O)c1cc(-c2noc(C3(C(F)(F)F)CC3)n2)cnc1-c1n(C)c2ncc(C(C)(F)F)cc2[n+]1[O-] [Compound 7]	–	–	0.41	–	–	–	–	–
CCS(=O)(=O)c1cc(-c2noc(C3(C(F)(F)F)CC3)n2)cnc1-c1nc2cc(C(C)(F)F)n[n+]([O-])c2n1C [Compound 8]	< 10	–	0.141	100	100	10 to 100	–	100
CCS(=O)(=O)c1cc(-c2noc(C3CC3)n2)cnc1-c1nc2cc(C(F)(F)C(F)(F)F)[n+]([O-])nc2n1C [Compound 2, 6-[5-(5-cyclopropyl-1,2,4-oxadiazol-3-yl)-3-(ethanesulfonyl)pyridin-2-yl]-7-methyl-3-(1,1,2,2,2-pentafluoroethyl)-7H-imidazo[4,5-c]pyridazin-2-ium-2-olate]	< 10	–	–	–	–	10 to 100	–	–
CCS(=O)(=O)c1cc(-c2ccc(C3(C#N)CC3)cc2)c[n+]([O-])c1-c1nc2cc(C(F)(F)F)cn(CC(F)F)c-2c1F [Compound 44, 5-[4-(1-cyanocyclopropyl)phenyl]-2-[4-(2,2-difluoroethyl)-3-fluoro-6-(trifluoromethyl)-4H-pyrrolo[3,2-b]pyridin-2-yl]-3-(ethanesulfonyl)pyridin-1-ium-1-olate]	–	–	–	–	–	10 to 100	–	–
CCS(=O)(=O)c1cc(-c2noc(C3CC3)n2)cnc1-c1nc2cc(C(F)(F)C(F)(F)F)c[n+]([O-])c2n1C [Compound 33]	< 10	–	0.889	100	100	< 10	10 to 100	–
